The record followed here is US11801210B2, “Retinol replacement in skin treatment” (SYMRISE AG, priority 2018, dated 2023).

Data set [1] concerns three-dimensional (3D) epidermis model (keratinocytes). Briefly: 3D epidermis model, thickness of the epidermis (H&E and Ki67 stained sections). The data set is classed as cell-based. The settings on record: 0.01 μM; for Thickness (whole) / Thickness (without stratum corneum): epidermis in stained sections. On the procedure: With such 3D assays significant information is obtained about the complex stratification and terminal differentiation process of keratinocytes in a multilayered epidermal tissue with barrier functionality.
Furthermore, paraffin sectioning and a H&E and Ki67 staining was performed. The thickness of the epidermis in the stained sections was measured and compared between MDI 101, all-trans Retinol, all in a concentration of 0.01 μM and the DMSO control (FIG. 1).

A short description of data set [2]: Solubility and recrystallization in o/w emulsions (microscopy, polarized light). The data set is classed as physicochemical. The method, then: Two pre-blends, A1 and A2, both containing 2.5 w/w % of Hydroxypinacolone Retinoate (MDI 101) were produced according to the above recipe. Three o/w emulsions (A, B and C) according to the following recipe were prepared: Heat Phases A and C separately up to 80° C. Disperse Phase B in A. Add Phase C to AB and emulsify by using an Ultra Turrax Stirrer (3 min, 6000 rpm). Add Phase D and neutralize. Allow to cool by using a vane stirrer. The emulsions were equal, except for the addition of MDI 101. […] As the pre-blends contain 2.5 wt.-% MDI 101, the final concentration of MDI 101 in the emulsions A, B and C was 0.05 wt.-% in all emulsions.

The test system of data set [3] is intracellular radicals (reactive oxygen species, ROS) in cells. Briefly: Dichlorofluorescein (DCF) assay, oxidative stress. The class given is cell-based. Particulars: for ROS mean value / ROS reduction: 24 h incubation, relative to control. The method, then:
For the quantification of intracellular radicals, the dichlorofluorescein (DCF) assay was performed. […] By intracellular esterases and oxidation, the nonfluorescent H2DCFDA is converted to the highly fluorescent 2′,7′-dichlorofluorescein (DCF). The nonfluorescent fluorescin (2′,7′-dichlorofluorescein diacetate (DCFH-DA) pass the cell membranes. In the cytoplasm, it is splitted by intracellular esterases and cannot leave out of the cell in this form. The oxidation by intracellularly existing ROS (reactive oxygen species) modifies the molecule so that will become DCF and emit fluorescence.
Determination of the anti-oxidative capacity is performed in 96-well microplates from Nunc (Wiesbaden, Germany) and with the microplate reader “Spark” from Tecan (Crailsheim, Germany).
Cells are seeded in a black 96 well microplate with transparent bottom and incubated at 37° C. After 24 hours the supernatant is decanted and fresh media with 0.1% FBS is succeded. Further 24 hours later the supernatant is decanted again and the test samples are added and incubated for 24 hours. Varying concentrations of MDI 101 in the cell culture medium were tested. As a positive control Trolox is always co-tested. Then the DCF Assay is performed and the fluorescence is measured from bottom of well at EX/EM 485/528 nm. The antioxidative capacity is expressed in percent, which can be determined by rule of proportion in combination with the control.

Data set [4] can be described thus: ABTS+ assay, anti-oxidative capacity. The data set is classed as biochemical. Particulars: 10 min at 30° C., 734 nm. The method, then:
For the determination of the anti-oxidative capacity, the ABTS+-Assay was performed. The assay principle bases on the reduction and the involved decolourization of the green coloured cationic radical 2,2′-Azinobis(3-ethylbenzothiazoline 6-sulfonic acid) (ABTS+) by antioxidants. The decolourization can be measured spectrophotometrically at 734 nm.
The determination of the anti-oxidative capacity is performed in 96-well microplates from Nunc (Wiesbaden, Germany) and with the microplate reader “Spark” from Tecan (Crailsheim, Germany).
Samples were incubated for 10 min at 30° C. with the 2,2′-Azinobis-(3-ethylbenzothiazoline-6-sulfonate (ABTS+) radical cation (Sigma, St. Louis, USA) prepared by reaction of ABTS+ with potassium persulfate. As a positive control Trolox is always co-tested. The degree of decolourization was determined spectrophotometrically at 734 nm by […]. Results are mean values from 2 independent experiments with quadruple determinations each.
The antioxidative capacity is expressed in IC50 values (concentration that scavenges 50% of the cationic radical relative to the untreated ABTS+ solution), which can be determined by a trend calculation.

Another data set deals with cells (proliferation). Briefly: CyQUANT Direct Cell Proliferation Assay. The class given is cell-based. The settings on record: 0.00005 mM; 72 hours; media with 6% FBS. The method, then:
To evaluate the pro-proliferative activity of MDI 101, the CyQUANT® Direct Cell Proliferation Assay was performed. The CyQUANT® Direct assay is based on a cell-permeant DNA-binding dye in combination with a background suppression reagent. As DNA content is highly regulated, cell number estimates are very accurate. The masking dye blocks staining of dead cells and cells with compromised cell membranes, causing only staining of healthy cells. Therefore, the CyQUANT® Direct assay measures proliferation as well as cytotoxicity. The fluorescence can be measured spectrophotometrically from bottom of well with standard green filter sets or wavelengths (EX/EM 508/527 nm).
The proliferation capacity is performed in black 96-well microplates from Corning (Germany) and with the microplate reader “Spark” from Tecan (Crailsheim, Germany).
Cells are seeded in a black 96 well microplate with transparent bottom and incubated at 37° C. and 5% CO2. After 24 hours the supernatant is decanted and the samples are added in fresh media with 6% FBS. As a positive control KGF is always co-tested. […] Then the CyQUANT® Direct assay is performed and the fluorescence is measured from bottom of well at EX/EM 508/527 nm.
The proliferation probability is expressed in percent, which can be determined by rule of proportion in combination with the control.

Data set [5] has as its system 3T3 swiss albino mouse fibroblasts. As to the kind of experiment: Cytotoxicity assay (TOX8 kit). The data set is classed as cell-based. The settings on record: Mus musculus, Fibroblast; 3T3 fibroblasts, 48 h treatment; concentration in medium lethal for 50% of living cells. On the procedure: (§1) The TOX8 (Sigma Aldrich) Kit was used to determine cytotoxicity retinoic acid, 3,3-dimethyl-2-oxobutyl ester (MDI 101) on 3T3 swiss albino mouse fibroblasts. The 3T3 were cultivated in DMEM medium (Capricorn) including 10% FBS, 1% Penicillin/Streptomycin and 100 nM sodium selenite at 37° C. and 5% CO2. For the cytotoxicity experiment, 3T3 were seeded into 96-well microtiter plate. After 24 hours incubation and a confluence of 30 to 40% the cells were treated with MDI 101 in four different concentrations for 48 h. Test substance was pre-diluted in DMSO, further dilutions were performed in equal medium with 5% FBS. After 48 h a microscopic estimation was carried out and the cells were incubated with TOX8-Kit for two hours at 37° C. and 5% CO2. The absorbance of a converted dye was measured by spectrophotometry at a wavelength of 600 nm. Bioreduction of the dye reduces the amount of its oxidized form (blue) and concomitantly increases the fluorescent intermediate (red), wherein the mechanism and applicability of the test is independent of the cell type. Cell viability was analyzed relative to the solvent-control. The inhibitory concentrations for 50% viability (IC50) and 80% (IC20) were calculated.
(§2) The specific concentration of MDI 101 in the cell culture medium, which is lethal for 20% (IC20) and for 50% (IC50) of living cells was determined: […]

Data set [6] in a line: Cytotoxicity assay (TOX8 kit). The data set is classed as cell-based, mouse. Particulars: mouse, 3T3 swiss albino mouse fibroblasts; 3T3 fibroblasts, 48 h treatment; concentration in medium lethal for 20% of living cells (80% viability). The method, then: as §1, §2

On to `CC1=C(/C=C/C(C)=C/C=C/C(C)=C/CO)C(C)(C)CCC1` [All-trans Retinol, reference compound], for which, in data set [1], the “Thickness (whole)” value came to 150 μm and the “Thickness (without stratum corneum)” value is given as 85 μm.

Consider `CC1=C(/C=C/C(C)=C/C=C/C(C)=C/C(=O)OCC(=O)C(C)(C)C)C(C)(C)CCC1` [MDI 101, retinoic acid, 3,3-dimethyl-2-oxobutyl ester], for which, in data set [2] (pre-solved in diisopropyl adipate, recrystallization could be avoided), the “Solubility after pre-solving in diisopropyl adipate” value is “strongly improved the solubility”. In addition, the “Solubility in cosmetic or pharmaceutical compositions (e.g. emulsions)” value in data set [2] (sole powder) is recorded as “poor solubility”. Moreover, the “Effect on the thickness of the epidermis (in words)” value in data set [1] (compared with all-trans Retinol in the same concentration) is recorded as “better than the effect of all-trans Retinol”. Also, the “Thickness (whole)” value in data set [1] worked out at 157 μm. The “Thickness (without stratum corneum)” value in data set [1] is given as 112.5 μm. Besides, the ROS mean value in data set [3] (0.002 μM) was 75%; in data set [3] (0.02 μM), 23%. Moreover, the ROS reduction in data set [3] (0.002 μM) turned out to be 25%; in data set [3] (0.02 μM), 77.5%. The “Anti-oxidative effect (in words)” value in data set [3] (concentrations which should have no cytotoxic effect) is on record as “anti-oxidative effect”. Also, the Mean inhibition in data set [4] (2 μM) was determined as 8.8%; in data set [4] (25 μM), 17.7%; in data set [4] (50 μM), 27.3%; in data set [4] (250 μM) it was 83.3%; in data set [4] (500 μM), 96.4%. The “Mean proliferation compared to control (100%)” value in the data set with cells (proliferation) stood at 125%. In data set [5], the IC50 was found to be 263 µM. Besides, the IC20 at 48 h in data set [6] worked out at 171 µM.

A word on the IC50: it is the point on the concentration scale where inhibition reaches its midpoint. Usually IC20 stands for the concentration at which the effect reaches the 20% level.
